Values quoted from earlier work, collected in US8551975B1, “Hyaluronic acid in soft gel form” (Soft Gel Technologies, Inc., priority 2001, dated 2013).

- half-life in the epidermis (epidermis, endogenous HA): less than one day
- half-life of an HA molecule (normally, endogenous HA synthesized and catabolized in tissues): 2-3 weeks
Substance: Hyaluronic Acid [HA]
